The source of these data is patent EP0468634A1, “The use of macrocyclic aminophosphonic acid complexes as imaging agents” (THE DOW CHEMICAL COMPANY, priority 1990, dated 1992).

The nature of data set [1]: Determination of water proton T1 relaxation time (inversion recovery NMR, 270 MHz). Particulars: deoxygenated, Example 1 complex at 680 µMolar in 20% D₂O (vol/vol). It is filed as physicochemical. How it is done:
The complex from Example 1 was deoxygenated by bubbling dry nitrogen gas through it for 20 min. The sample was then placed in a 5 mm NMR tube and placed in a 270 MHz spectrometer for determination of the water proton relaxation time.
The NMR experiment used to measure the relaxation time was the standard inversion recovery technique for measuring spin-lattice (T₁) relaxation times. In this technique the intensity of the water proton NMR resonance is measured as a function of a variable delay time between radiofrequency pulses during which the spin system relaxes toward equilibrium. The final data, which consisted of peak intensities versus delay time, was plotted and fitted to an exponential function. The characteristic time for spin magnetization to reestablish itself (T₁) is obtained from the time constant of the fitted exponential function. The value for T₁ for the complex of Example 1 was 244 mS. This compares favorably to a value of 422 mS for a Gd-DTPA, and 540 mS for Gd-DOTA when the experiment was repeated using these complexes. (The Gd-DTPA and Gd-DOTA are known commercial MRI agents.)

The nature of data set [2]: Biodistribution of Gd-DOTMP complex in a rat: Gd in femur by inductively coupled plasma spectroscopy. Type of data set: in vivo, Sprague Dawley rat. How it is done: A 150 g Sprague Dawley rat was injected with 6-100 µL portions of the Gd-DOTMP, prepared in Example 4, over a 4 day period. This rat was then sacrificed and one of its femur bones was removed and found to weigh 0.690 g. This bone was dissolved in 5 mL of concentrated HCl and analyzed for Gd by inductively coupled plasma spectroscopy. The amount of Gd found in the femur bone was 16.76 µg, which corresponds to 419 µg in the total rat skeleton, assuming the femur is 1/25th of the total skeleton. This corresponds to 25.5% of the injected dose going to the bone. That result compares favorably with similar work done with radioactive tracer ¹⁵³Sm where at these high levels of injected doses about 25-30% of the injected dose localizes in the bone. Thus the behavior of Sm-DOTMP and Gd-DOTMP are very similar in vivo.

Data set [3] in a line: Quantitative biodistribution of 159Gd tracer formulation in rat (NaI scintillation counting of tissues). Type of data set: in vivo, Sprague Dawley rat. Conditions: 100 µL via tail vein, 2 hours after injection, ligand to metal molar ratio 1.5, 0.32 mg/mL. The source says: Quantitative biodistributions were obtained by injecting 50-100 microliters of the composition into the rail vein of unanesthetized male Sprague Dawley rats. The rats were then placed in cages lined with absorbent paper in order to collect all urine excreted prior to sacrifice. After a given period of time, the rats were sacrificed by cervical dislocation and the various tissues dissected. The samples were then rinsed with saline, blotted dry on absorbent paper and weighed. The radioactivity in the samples was measured with a NaI scintillation counter.
A 1.45 mg sample of DOTMP, prepared by the procedure of Example B, was placed in a vial and dissolved in 760 µL of water and 5 µL of 50% (wt/wt) of NaOH. A volume of 1000 µL of Gd solution (0.3 mM Gd in O.1N HCl), which contained tracer quantities of ¹⁵⁹Gd, was placed in a separate vial and 15 µL of the DOTMP solution was added. The pH of the solution was adjusted to 7 to 8 using NaOH. The amount of Gd as a complex was determined to be > 99% by cation exchange chromatography. This formulation has a ligand to metal molar ratio of 1.5.
A Sprague Dawley rat was injected with the above prepared formulation and the biodistribution determined. The rat was allowed to acclimate for five days then injected with 100 µL of the Gd solution described above via a tail vein. The rat weighed between 150 and 200 g at the time of injection. After 2 hours the rat was killed by cervical dislocation. Tissues were taken, weighed and the amount of radioactivity in each tissue was determined by counting in a NaI scintillation counter coupled to a multichannel analyzer. The counts in each tissue were compared to the counts in 100 µL standards in order to determine the percentage of the injected dose in each tissue or organ. The ligand (DOTMP) to metal (Gd) molar ratio = 1.5.

As to `O=C([O-])CN1CCN(CC(=O)[O-])CCN(CC(=O)O)CCN(CC(=O)[O-])CC1.[Gd+3]` [Gd-DOTA], the “T₁ (spin-lattice relaxation time of water protons)” value in data set [1] amounted to 540 mS.

As for `O=C([O-])CN(CCN(CC(=O)[O-])CC(=O)O)CCN(CC(=O)[O-])CC(=O)O.[Gd+3]` [Gd-DTPA], in data set [1], the “T₁ (spin-lattice relaxation time of water protons)” value is reported as 422 mS.

Take Gd-DOTMP [Example 1]: in data set [1], the “T₁ (spin-lattice relaxation time of water protons)” value stood at 244 mS. In data set [2] (150 g rat, 6-100 µL portions over a 4 day period, femur 0.690 g, ICP), the “amount of Gd found in the femur bone” value was determined as 16.76 µg. Moreover, the “% of the injected dose going to the bone” value in data set [2] (150 g rat, 6-100 µL portions over a 4 day period, from femur Gd) amounted to 25.5%. Also, the “Gd in the total rat skeleton” value in data set [2] (assuming the femur is 1/25th of the total skeleton) was determined as 419 µg.

For ¹⁵⁹Gd-DOTMP [Ho-DOTMP], in data set [3], the “% OF INJECTED DOSE (159Gd) in Blood” value was found to be 0.08%, the “% OF INJECTED DOSE (159Gd) in Bone” value is 50%, the “% OF INJECTED DOSE (159Gd) in Kidney” value is 0.25% and the “% OF INJECTED DOSE (159Gd) in Liver” value is reported as 0.08%.
